Source: patent publication US9695155B2, “Herbicidal substituted pyrimidinyloxy benzene compounds” (E. I. DU PONT DE NEMOURS AND COMPANY, priority 2013, dated 2017)

Columns and labels:
[1] = system: kochia; assay: Test E postemergence; format: in vivo, Kochia scoparia
Excerpt: Seeds of plant species selected from corn (Zea mays), soybean (Glycine max), velvetleaf (Abutilon theophrasti), lambsquarters (Chenopodium album), wild poinsettia (Euphorbia heterophylla), palmer pigweed (Amaranthus palmeri), waterhemp (common waterhemp, Amaranthus rudis), surinam grass (Brachiaria decumbens), large (Lg) crabgrass (Digitaria sanguinalis), Brazilian crabgrass (Digitaria horizontalis), fall panicum (Panicum dichotomiflorum), giant foxtail (Setaria faberii), green foxtail (Setaria viridis), goosegrass (Eleusine indica), johnsongrass (Sorghum halepense), ragweed (common ragweed, Ambrosia elatior), barnyardgrass (Echinochloa crus-galli), sandbur (southern sandbur, Cenchrus echinatus), arrowleaf sida (Sida rhombifolia), Italian ryegrass (Lolium multiflorum), dayflower (Virginia (VA) dayflower, Commelina virginica), field bindweed (Convolvulus arvensis), morningglory (Ipomoea coccinea), nightshade (eastern black nightshade, Solanum ptycanthum), kochia (Kochia scoparia), yellow nutsedge (Cyperus esculentus), cocklebur (common cocklebur, Xanthium strumarium), smartweed (ladysthumb smartweed, and hairy beggarticks (Bidens pilosa), were planted into a silt loam soil and treated preemergence with test chemicals formulated in a non-phytotoxic solvent mixture which included a surfactant.
At the same time, plants from these crop and weed species and also horseweed (Canada horseweed, Conyza canadensis), waterhemp_RES1, (ALS & Triazine resistant common waterhemp, Amaranthus rudis), and waterhemp_RES2, (ALS & HPPD resistant common waterhemp, Amaranthus rudis) were planted in pots containing Redi-Earth® planting medium (Scotts Company, 14111 Scottslawn Road, Marysville, Ohio 43041) comprising spaghnum peat moss, vermiculite, wetting agent and starter nutrients were treated with postemergence applications of test chemicals formulated in the same manner. Plants ranged in height from 2 to 18 cm for postemergence treatments (1- to 4-leaf stage). Treated plants and controls were maintained in a greenhouse for 14 to 21 days, after which time all species were compared to controls and visually evaluated. Plant response ratings, summarized in Table E, are based on a scale of 0 to 100 where 0 is no effect and 100 is complete control. A dash (-) response means no test result.

[2] = system: barnyardgrass; assay: Test F preemergence; format: in vivo, Echinochloa crus-galli; conditions: 21 days, scale 0 to 100
In short: (§1)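 Preemergence application to seeded loam–sand soil, with compound delivered in a non-phytotoxic solvent plus surfactant; weed control assessed visually at 21 days (0–100 scale).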

[3] = system: bluegrass; assay: Test F preemergence; format: in vivo, Poa annua; conditions: 21 days, scale 0 to 100
In short: as §1

[4] = system: green foxtail; assay: Test D preemergence; format: in vivo, Setaria viridis; conditions: Setaria viridis, pre-emergence, scale 0-100, read-out: Plant response rating, Foxtail, Green
Excerpt: (§2) Seeds of plant species selected from bluegrass (annual bluegrass, Poa annua), blackgrass (Alopecurus myosuroides), canarygrass (littleseed canarygrass, Phalaris minor), chickweed (common chickweed, Stellaria media), galium (catchweed bedstraw, Galium aparine), bromegrass, downy (downy bromegrass, Bromus tectorum), field poppy (Papaver rhoeas), field violet (Viola arvensis), green foxtail (Setaria viridis), deadnettle (henbit deadnettle, Lamium amplexicaule), Italian ryegrass (Lolium multiflorum), kochia (Kochia scoparia), lambsquarters (Chenopodium album), oilseed rape (Brassica napus), pigweed (Amaranthus retroflexus), chamomile (scentless chamomile, Matricaria inodora), Russian thistle (Salsola kali), speedwell (bird's-eye speedwell, Veronica persica), spring barley (Hordeum vulgare), spring wheat (Triticum aestivum), wild buckwheat (Polygonum convolvulus), wild mustard (Sinapis arvensis), wild oat (Avena fatua), wild radish (Raphanus raphanistrum), windgrass (Apera spica-venti), winter barley (Hordeum vulgare), and winter wheat (Triticum aestivum) were planted into a silt loam soil and treated preemergence with test chemicals formulated in a non-phytotoxic solvent mixture which included a surfactant.
(§3) At the same time, these species were planted in pots containing Redi-Earth® planting medium (Scotts Company, 14111 Scottslawn Road, Marysville, Ohio 43041) comprising spaghnum peat moss, vermiculite, wetting agent and starter nutrients and treated with postemergence applications of the test chemicals formulated in the same manner. Plants ranged in height from 2 to 18 cm (1- to 4-leaf stage). Treated plants and controls were maintained in a controlled growth environment for 7 to 21 days after which time all species were compared to controls and visually evaluated. Plant response ratings, summarized in Table D, are based on a scale of 0 to 100 where 0 is no effect and 100 is complete control. A dash (-) response means no test result.

[5] = system: wild buckwheat; assay: Test D preemergence; format: in vivo, Polygonum convolvulus; conditions: Fallopia convolvulus, pre-emergence, scale 0-100, read-out: Plant response rating, Buckwheat, Wild
In short: (§4)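 In a controlled growth environment, treated and control plants were held 7 to 21 days, then compared visually. Damage was scored 0–100, where 100 means complete control. Sprays contained surfactant in a non-phytotoxic solvent; post-applied plants were at the 1- to 4-leaf stage.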

[6] = system: wild mustard; assay: Test D preemergence; format: in vivo, Sinapis arvensis; conditions: Brassica, pre-emergence, scale 0-100, read-out: Plant response rating, Mustard, Wild
Excerpt: as §2, §3

[7] = system: bromegrass, downy; assay: Test D postemergence; format: in vivo, Bromus tectorum; conditions: Bromus tectorum, post-emergence, Postemergence, scale 0 to 100 (0 no effect, 100 complete control), read-out: Plant response rating, Bromegrass, Downy
Excerpt: as §2, §3

[8] = system: chamomile; assay: Test D postemergence; format: in vivo, Matricaria inodora; conditions: Tripleurospermum inodorum, post-emergence, scale 0 to 100 (0 no effect, 100 complete control), read-out: Plant response rating, Chamomile
In short: as §4

[9] = Postemergence, 31 g ai/ha, scale 0 to 100
[10] = Postemergence, 62 g ai/ha, scale 0 to 100
[11] = Postemergence, 125 g ai/ha, scale 0 to 100
[12] = postemergence, 16 g ai/ha, scale 0 to 100, 0 no effect, 100 complete control

## Clc1cnc(Oc2cccc(Cl)c2-n2cc(I)cn2)nc1 [Compound 181]
[1]; [9]
  Plant response rating, Kochia: 60
[1]; [10]
  Plant response rating, Kochia: 50
[1]; [11]
  Plant response rating, Kochia: 90
[1]; [12]
  Plant response rating, Kochia: 35

## N#Cc1cccc(Oc2ncc(F)cn2)c1-n1cc(C(F)(F)F)cn1 [Compound 79, 3-[(5-fluoro-2-pyrimidinyl)oxy]-2-[4-(trifluoromethyl)-1H-pyrazol-1-yl]benzonitrile]
[1]; [9]
  Plant response rating, Kochia: 70
[1]; [10]
  Plant response rating, Kochia: 80
[1]; [11]
  Plant response rating, Kochia: 75
[1]; [12]
  Plant response rating, Kochia: 50
[2]; 16 g ai/ha
  Plant response rating, Barnyardgrass: 75
[2]; 31 g ai/ha
  Plant response rating, Barnyardgrass: 100
[2]; 62 g ai/ha
  Plant response rating, Barnyardgrass: 100
[2]; 125 g ai/ha
  Plant response rating, Barnyardgrass: 100
[2]; 250 g ai/ha
  Plant response rating, Barnyardgrass: 100
[3]; 16 g ai/ha
  Plant response rating, Bluegrass: 50
[3]; 31 g ai/ha
  Plant response rating, Bluegrass: 75
[3]; 62 g ai/ha
  Plant response rating, Bluegrass: 98
[3]; 125 g ai/ha
  Plant response rating, Bluegrass: 100
[3]; 250 g ai/ha
  Plant response rating, Bluegrass: 100

## N#Cc1cccc(Oc2ncc(Cl)cn2)c1-n1cc(Br)cn1 [Compound 52, 2-(4-bromo-1H-pyrazol-1-yl)-3-[(5-chloro-2-pyrimidinyl)oxy]benzonitrile]
[4]; 31 g ai/ha
  pest or weed control at 31 g/ha: 20%
[4]; 62 g ai/ha
  pest or weed control at 62 g/ha: 60%
[4]; 125 g ai/ha
  pest or weed control at 125 g/ha: 100%
[4]; 250 g ai/ha
  pest or weed control at 250 g/ha: 100%
[5]; 31 g ai/ha
  pest or weed control at 31 g/ha: 10%
[5]; 62 g ai/ha
  pest or weed control at 62 g/ha: 50%
[5]; 125 g ai/ha
  pest or weed control at 125 g/ha: 100%
[5]; 250 g ai/ha
  pest or weed control at 250 g/ha: 100%
[6]; 31 g ai/ha
  pest or weed control at 31 g/ha: 20%
[6]; 62 g ai/ha
  pest or weed control at 62 g/ha: 55%
[6]; 125 g ai/ha
  pest or weed control at 125 g/ha: 90%
[6]; 250 g ai/ha
  pest or weed control at 250 g/ha: 100%
[7]; 31 g ai/ha
  pest or weed control at 31 g/ha: 15%
[7]; 62 g ai/ha
  pest or weed control at 62 g/ha: 20%
[7]; 125 g ai/ha
  pest or weed control at 125 g/ha: 20%
[7]; 250 g ai/ha
  pest or weed control at 250 g/ha: 25%
[8]; 31 g ai/ha
  pest or weed control at 31 g/ha: 10%
[8]; 62 g ai/ha
  pest or weed control at 62 g/ha: 15%
[8]; 125 g ai/ha
  pest or weed control at 125 g/ha: 20%
[8]; 250 g ai/ha
  pest or weed control at 250 g/ha: 15%
[1]; [9]
  Plant response rating, Kochia: 50
[1]; [10]
  Plant response rating, Kochia: 55
[1]; [11]
  Plant response rating, Kochia: 80
[1]; [12]
  Plant response rating, Kochia: 40
